Data from patent US20040044037A1, “Amidino-urea serotonin receptor ligands and compositions, their pharmaceutical uses, and methods for their snythesis” (priority 2003, published 2004).
Like-named read-outs stand apart in the source and are kept apart here.

Tests used:
[1] = molecular target: T1, human 5-HT7B (h5-HT7b) receptors (Homo sapiens, UniProt P34969); experiment: Competition radioligand binding, h5-HT7b
T1 construct: expressed in transfected cells
Outline: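 Membranes from HEK 293 cells stably expressing human 5-HT7b incubated with ~0.2 nM [3H]5-CT and varying compound 2 h at 37 °C in HEPES buffer pH 7.4 with pargyline. Nonspecific binding with 1 μM 5-HT; filtration, scintillation counting; IC50 by nonlinear regression converted to Ki via Cheng–Prusoff.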

human 5-HT1a receptors = molecular target: T2, human 5-HT1a receptors (Homo sapiens, UniProt P08908); experiment: Competition radioligand binding, h5-HT1a
T2 construct: expressed in transfected cells; host or cells: CHO K1 cells
T2 sequence (P08908 1-422): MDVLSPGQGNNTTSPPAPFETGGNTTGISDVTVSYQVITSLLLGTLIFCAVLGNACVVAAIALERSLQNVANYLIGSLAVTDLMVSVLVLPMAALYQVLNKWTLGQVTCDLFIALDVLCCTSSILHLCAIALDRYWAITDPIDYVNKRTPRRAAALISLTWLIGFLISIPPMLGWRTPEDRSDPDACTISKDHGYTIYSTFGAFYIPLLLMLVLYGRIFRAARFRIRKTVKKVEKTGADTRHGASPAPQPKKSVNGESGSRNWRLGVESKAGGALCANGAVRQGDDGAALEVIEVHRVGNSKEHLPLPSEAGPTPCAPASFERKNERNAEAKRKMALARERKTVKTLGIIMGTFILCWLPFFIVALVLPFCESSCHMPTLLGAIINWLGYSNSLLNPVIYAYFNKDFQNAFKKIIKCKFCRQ
Experimental: (§1) Cells and Membrane Preparation: HEK 293 cells stably expressing human 5-HT7B (h5-HT7b) receptors were grown in Dulbecco's Modified Eagle's Medium (DMEM; Gibco) without sodium pyruvate and containing 4.5 g/L glucose, L-glutamine/penicillin-streptomycin (Gemini), 10% fetal bovine serum and 250 mg/l of the antibiotic, G418 (Geneticin) as previously described (Jasper, J. R., Kosaka, A., To, Z. P., Chang, D. J. and Eglen, R. M. (1997) Cloning, expression and pharmacology of a truncated splice variant of the human 5-ht7 receptor (h5-ht7b). Br. J. Pharmacol. 122(1):126-132.). Cell pellets were homogenized in approximately 50 mL of homogenization buffer (buffer A) containing: 50 mM Tris (pH 7.4), 2 mM EGTA, 0.32 M sucrose, 10 μM PMSF, 1 μg/mL leupeptin, 5 μg/mL Pepstatin A, and 5 μg/mL aprotinin using an UltraTurax homogenizer (Tekmar Company, Cincinnati, Ohio) at 80% maximum setting three times for 10 sec. Cell pellets were centrifuged at 4° C. at 1,500×g for 10 min in a Beckman GS-6R centrifuge. Pellets were resuspended in buffer A, homogenized and centrifuged as described above. Pooled supernatants were transferred to centrifuge bottles and centrifuged at 4° C. at 20,000×g for 30 min in a Beckman J2-HS centrifuge. Cell pellets were resuspended in buffer A and were centrifuged at 4° C. at 20,000×g for 30 min. Cell pellets were resuspended in buffer A and stored at −70° C. in aliquots of 2.5 mg/mL total membrane protein. Total membrane protein was assessed utilizing a BCA kit (Pierce; Rockford, Ill.). Membranes containing human 5-HT1a or 5HT2a receptors expressed in CHO K1 cells were prepared as described above.
(§2) Radioligand Binding Assays: For 5-HT7 saturation binding experiments, HEK-293 cell membranes expressing h5-HT7 receptors (5-10 μg membrane protein/well) were incubated in duplicate with [^3H]5-CT (approximately 0.2 nM) in binding assay buffer containing: 50 mM HEPES (pH 7.4), 0.5 mM EDTA, 10 mM MgCl2, 10 μM pargyline to inhibit monoamine oxidase activity, and 0.1% sodium ascorbate, in a final volume of 200 μL in 96-well polypropylene plates for 2 hours at 37° C. Nonspecific binding was determined by incubating membranes with 1 μM 5-HT. All radioligand binding assays were stopped by rapid filtration onto 96-well GF/C filter plates (Packard) soaked in 0.1% polyethylenimine. Filters were washed three times with ice-cold phosphate-buffered saline (PBS) wash buffer containing 50 mM NaPO4 (pH 7.4), 0.9% NaCl, 2 mM MgCl2 and 0.02% NaN3. The filters were then counted using liquid scintillation in a Packard Topcount scintillation counter.
(§3) Data Analysis: Radioligand binding experiments were analyzed with Prism™ (Graphpad, San Diego, Calif.), a computer graphics and statistics program. IC50 values and Hill slopes for compounds were generated by nonlinear regression using Prism™. Values for Ki calculated from IC50 values by the Cheng and Prussoff equation (Cheng, Y. and Prusoff, W. H., (1973), “Relationship between the inhibition constant (Ki) and the concentration of inhibitor which causes 50 per cent inhibition (I50) of an enzymatic reaction.” Biochemical Pharmacol. 22:3099-3108).

[2] = molecular target: T3, human 5-HT6 (h5-HT6) receptors (Homo sapiens, UniProt P50406); experiment: Competition radioligand binding, h5-HT6
T3 construct: purchased Receptor Biology, Inc. (Beltsville, Md.); host or cells: HEK-293 cells
T3 sequence (P50406 whole entry): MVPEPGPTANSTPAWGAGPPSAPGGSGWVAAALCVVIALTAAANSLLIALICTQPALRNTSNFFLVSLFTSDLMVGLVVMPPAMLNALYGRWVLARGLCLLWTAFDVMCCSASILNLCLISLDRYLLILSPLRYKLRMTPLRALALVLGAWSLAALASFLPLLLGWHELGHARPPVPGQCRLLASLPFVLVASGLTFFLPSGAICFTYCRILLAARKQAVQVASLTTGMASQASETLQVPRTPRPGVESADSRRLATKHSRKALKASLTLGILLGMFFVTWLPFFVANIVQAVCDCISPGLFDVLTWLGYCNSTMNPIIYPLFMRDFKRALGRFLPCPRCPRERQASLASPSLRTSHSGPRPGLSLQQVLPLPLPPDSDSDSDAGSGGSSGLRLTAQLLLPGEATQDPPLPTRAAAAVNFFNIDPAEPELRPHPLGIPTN

human 5HT2a receptors = molecular target: T4, human 5HT2a receptors (Homo sapiens, UniProt P28223); experiment: Competition radioligand binding, 5-HT2A
T4 construct: expressed in transfected cells; host or cells: CHO K1 cells
T4 sequence (P28223 whole entry): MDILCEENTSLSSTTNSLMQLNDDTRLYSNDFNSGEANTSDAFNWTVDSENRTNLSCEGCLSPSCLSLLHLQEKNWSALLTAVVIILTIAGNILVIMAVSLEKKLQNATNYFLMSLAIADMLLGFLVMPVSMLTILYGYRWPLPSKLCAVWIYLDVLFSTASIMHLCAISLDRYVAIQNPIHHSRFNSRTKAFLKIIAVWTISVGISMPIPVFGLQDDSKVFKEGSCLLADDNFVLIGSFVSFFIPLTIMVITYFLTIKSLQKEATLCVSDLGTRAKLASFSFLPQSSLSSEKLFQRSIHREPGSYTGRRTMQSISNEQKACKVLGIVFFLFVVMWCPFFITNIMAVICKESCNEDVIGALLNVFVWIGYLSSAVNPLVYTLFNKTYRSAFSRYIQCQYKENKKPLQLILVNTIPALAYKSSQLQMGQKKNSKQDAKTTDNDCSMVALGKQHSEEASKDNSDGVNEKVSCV
Experimental: as §1, §2, §3

[3] = molecular target: T5, human D2S dopamine (hD2S-DA) receptors (Homo sapiens, UniProt P14416); experiment: Competition radioligand binding, hD2S dopamine
T5 construct: purchased Receptor Biology, Inc. (Beltsville, Md.); host or cells: A9 L cells
T5 sequence (P14416 1-414 isoform P14416-2): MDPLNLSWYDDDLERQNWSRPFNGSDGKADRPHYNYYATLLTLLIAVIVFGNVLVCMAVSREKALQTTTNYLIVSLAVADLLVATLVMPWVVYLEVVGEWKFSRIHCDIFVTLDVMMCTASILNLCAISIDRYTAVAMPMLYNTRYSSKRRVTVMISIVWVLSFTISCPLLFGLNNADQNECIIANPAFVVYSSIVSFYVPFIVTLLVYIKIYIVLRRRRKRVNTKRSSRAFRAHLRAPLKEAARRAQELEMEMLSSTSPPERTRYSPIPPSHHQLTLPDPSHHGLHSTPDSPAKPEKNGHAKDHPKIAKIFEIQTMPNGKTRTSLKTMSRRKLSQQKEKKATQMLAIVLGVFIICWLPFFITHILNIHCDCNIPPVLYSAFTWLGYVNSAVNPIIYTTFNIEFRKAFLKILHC

[4] = [3H]5-CT, membranes of HEK 293 cells, read-out: Ki 5-HT7
[5] = [3H]5-CT, membranes of CHO K1 cells, read-out: Ki 5-HT1A
[6] = [3H]LSD, membranes of HEK-293 cells, read-out: Ki 5-HT6
[7] = [3H]Ketanserin, membranes of CHO K1 cells, read-out: Ki 5-HT2A
[8] = [3H]Spiperone, membranes of A9 L cells, read-out: Ki D2

T1 sequence (P34969 1-432 limits assumed): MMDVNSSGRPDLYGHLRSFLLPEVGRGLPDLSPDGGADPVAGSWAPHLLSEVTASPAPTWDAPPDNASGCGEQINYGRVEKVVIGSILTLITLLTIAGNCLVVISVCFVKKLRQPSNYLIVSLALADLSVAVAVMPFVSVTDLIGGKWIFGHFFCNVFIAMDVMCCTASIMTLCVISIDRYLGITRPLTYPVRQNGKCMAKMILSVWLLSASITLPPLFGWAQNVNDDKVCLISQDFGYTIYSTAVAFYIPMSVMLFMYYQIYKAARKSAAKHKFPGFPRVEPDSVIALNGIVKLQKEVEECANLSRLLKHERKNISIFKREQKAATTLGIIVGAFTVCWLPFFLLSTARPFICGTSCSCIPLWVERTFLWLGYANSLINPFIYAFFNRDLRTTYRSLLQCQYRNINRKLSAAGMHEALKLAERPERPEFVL

Row | SMILES | Ki [1, 4] [nM] | Ki (human 5-HT1a receptors; [5]) [nM] | Ki [2, 6] [nM] | Ki (human 5HT2a receptors; [7]) [nM] | Ki [3, 8] [nM] | Ki [1] [nM] | Ki (human 5-HT1a receptors) [nM] | Ki [2] [nM] | Ki (human 5HT2a receptors) [nM] | Ki [3] [nM]
1 | CNC(=O)NC(=N)NCc1cccc(-c2ccccc2)c1 [Example 87, 3-{[(Imino{[(methylamino)carbonyl]amino}methyl)amino]methyl}-1,1′-biphenyl] | 80 | > 400 | 3360 | 1020 | > 2500 |  |  |  |  | 
2 | CNC(=O)NC(=N)NCc1c(OC)cccc1OC [Example 85, 2-{[(Imino{[(methylamino)carbonyl]amino}methyl)amino]methyl}-1,3-dimethoxybenzene] | 12 | 310 | 6340 | 280 | > 2500 |  |  |  |  | 
3 | N=C(NCc1cccc2ccccc12)NC(=O)NC1CCN(Cc2ccccc2)CC1 [Example 6, 1-Benzyl-4-{[({imino[(1-naphthylmethyl)amino]methyl}amino)carbonyl]amino}piperidine] | 68 | 770 | 8630 | 13 | 1050 |  |  |  |  | 
4 | N=C(NCc1cccc2ccccc12)NC(=O)N1CCC(Nc2ccccc2)CC1 [Example 25, N-[(4-Anilino-1-piperidinyl)carbonyl]-N-(1-naphthylmethyl)guanidine] |  |  |  |  |  | 7.4 | 2590 | > 10000 | 120 | 1470
5 | COc1ccccc1CN1CCC(CNC(=O)NC(=N)NCc2cccc3ccccc23)CC1 [Example 45, 4-({[({Imino[(1-naphthylmethyl)amino]methyl}amino)carbonyl]amino}methyl)-1-(2-methoxybenzyl)piperidine] | 21 | 600 | 1550 | 3.9 | 500 |  |  |  |  | 
6 | N=C(NCc1cccc2ccccc12)NC(=O)N1CCC(C(N)=O)CC1 [Example 8, 1-[({imino[(1-naphthylmethyl)amino]methyl}amino)carbonyl]-4-piperidinecarboxamide] | 12 | > 4000 | > 10000 | 40 | > 2500 |  |  |  |  | 
7 | CNC(=O)NC(=N)NCc1cccc2ccccc12 [Example 54, 1-{[(1-Imino{[(methylamino)carbonyl]amino}methyl)amino]methyl}naphthalene] | 13 | 2450 | 2450 | 9.6 | > 2500 |  |  |  |  | 
8 | COc1ccccc1CN1CCN(C(=O)NC(=N)NCc2cccc3ccccc23)CC1 [Example 5, N-{[4-(2-Methoxybenzyl)-1-piperazinyl]carbonyl}-N′-(1-naphthylmethyl)guanidine] | 26 | 2390 | 1960 | 46 | 2010 |  |  |  |  | 
9 | N=C(NCc1cccc2ccccc12)NC(=O)N1CCN(C/C=C/c2ccccc2)CC1 [Example 24, N-(1-Naphthylmethyl)-N′-({4-[(E)-3-phenyl-2-propenyl]-1-piperazinyl}carbonyl)guanidine] | 3.2 | 2620 | 1910 | 78 | 820 |  |  |  |  | 
10 | N=C(NCc1cccc2ccccc12)NC(=O)NC[C@@H]1CCCC[C@H]1O [Example 46, 1-({[{[({[(1S,2R)-2-Hydroxycyclohexyl]methyl}amino)carbonyl]amino}(imino)methyl]amino}methyl)naphthalene] | 9.8 | 49 | 500 | 0.6 | 410 |  |  |  |  | 
11 | CN(C)C(=O)NC(=N)NCc1cccc2ccccc12 [Example 56, 1-({[{[(Dimethylamino)carbonyl]amino}(imino)methyl]amino}methyl)naphthalene] | 94 | 700 | > 10000 | 17 | > 2500 |  |  |  |  | 
12 | N=C(NCc1cccc2ccccc12)NC(=O)NCC1CCN(Cc2cc(F)cc(F)c2)CC1 [Example 74, 1-(3,5-Difluorobenzyl)-4-({[({imino[(1-naphthylmethyl)amino]methyl}amino)carbonyl]amino}methyl)piperidine] | 28 | 300 | 1910 | 4.1 | 1340 |  |  |  |  | 
